# Reference: PMC12715762, “Discovery of VU6052254: A Novel, Potent M1 Positive Allosteric Modulator” (ACS Chemical Neuroscience, 2025)
# Entries after “also recorded” stand apart in the source; their conditions may differ.
# Assays:
# [1] = plasma protein binding, equilibrium dialysis (human); format: in vitro ADME; conditions: pH 7.4, read-out: fu,plasma
# Method: Plasma protein binding and Brain homogenate binding: Determination of fraction unbound (f u) in plasma was conducted in vitro via equilibrium dialysis using HTDialysis (HTD) membrane plates. The top half of the plate was filled with 100 uL of Dubelco’s Phosphate Buffered Saline, pH 7.4 (DPBS). Compounds were diluted into plasma from each species (5 µM final concentration), which was aliquoted in triplicate to the ‘bottom half’ of the prepared HTD plate wells. The HTD plate was sealed and incubated for 6 hours at 37 °C. Following incubation, each well (both top and bottom halves) were transferred (20 µL) to the corresponding wells of a 96-shallow-well (V-bottom) plate. […]
# The unbound fraction (f u) was calculated following the equation below, and mean values for each species were calculated from 3 replicates.
# A similar approach was used to determine the degree of brain homogenate binding, which employed the same methodology and procedure with the following modifications: 1) a final compound concentration of 1 μM was used, 2) naïve rat brains were homogenized in DPBS (1:3 composition of brain: DPBS, w/w) using a Mini-Bead Beater™ machine in order to obtain brain homogenate, which was then treated in the same manner as the plasma samples in the previously described plasma protein binding assay. Fraction unbound for both plasma and brain samples was determined using Equation 4. […]
# [2] = biological target: CYP 2B6 (Homo sapiens, UniProt P20813); test: CYP450 inhibition; format: in vitro ADME
# [3] = IV/PO pharmacokinetics (rat); format: in vivo; conditions: Rat (SD)
# [4] = test system: Sprague-Dawley rats; test: novel object recognition (NOR); format: in vivo, rat
# Method: monitored continuously and scored for behavioral manifestations of seizure activity at 5, 15, 30 min, and 1 h. Behavioral manifestations of seizures were scored using a modified Racine scoring system. Briefly, a score of 0 represents no behavior alterations; score 1, immobility, mouth and facial movements, or facial clonus; score 2, head nodding, tail extension; score 3, forelimb clonus, repetitive movements; score 4, rearing and tonic clonic seizure; and score 5, continuous rearing and falling, severe generalized tonic clonic seizure.
# Novel Object Recognition Task
# Rats were habituated for 10 min for 2 consecutive days in an empty novel object recognition (NOR) arena consisting of dark-colored plexiglass box (40 × 64 × 33 cm3). On day 3 rats were administered vehicle, M1 PAM 3 (1-10 mg/kg, p.o.., 10 mL/kg, n = 13-18), or M 1 PAM 5 (0.3-3 mg/kg, p.o.., 10 mL/kg, n = 16-18) and returned to their home cage for 60 min (M 1 PAM 5) or 2 hr (M1 PAM 3. Rats were then placed in the NOR arena containing two identical objects for 10 min. Following the exposure period, rats were placed back into their home cages for 24 h. The rats were then returned to the arena in which one of the previously exposed (familiar) objects was replaced by a novel object and were video recorded for 5 min while they explored the two objects.
# Time spent exploring each object was scored by an observer blinded to the experimental conditions and the recognition index was calculated as [(time spent exploring novel object) – (time spent exploring familiar object)]/total time exploring objects.
# [5] = test system: Sprague-Dawley rats; test: contextual fear conditioning (CFC); format: in vivo, rat
# Method: Contextual Fear Conditioning
# Contextual Fear Conditioning. Studies were conducted using conditioning chambers in sound attenuating cubicles equipped with a stainless steel grid floor for shock delivery and a video camera for recording freezing behavior (Med Associates, Fairfax, Vermont). Rats were acclimated to the apparatus for 3 days (10 minutes each day) prior to conditioning. On the training (conditioning) day, rats were pretreated by oral gavage with Vehicle (10% Tween 80) or Compound X […]
# conditioning chamber that contained 1 mL 10% vanilla extract as odor cue.2 After a 180-sec
# [6] = biological target: 3A4 (Homo sapiens, UniProt P08684); test: CYP450 phenotyping, recombinant enzymes; format: in vitro ADME; conditions: 3A4, panel of eight recombinant enzymes
# [7] = test system: 2B6; test: CYP450 induction in human hepatocytes (three donors); format: cell-based; conditions: 10 μM, human hepatocytes from three donors
# [8] = test system: 3A4; test: as above; format: cell-based
# [9] = biological target: Adrenergic α1D (Homo sapiens, UniProt P25100); test: Eurofins radioligand binding
# [10] = biological target: Adrenergic β2 (Homo sapiens, UniProt P07550); test: Eurofins radioligand binding
# [11] = biological target: Bradykinin B1 (Homo sapiens, UniProt P46663); test: Eurofins radioligand binding
# [12] = biological target: Glucocorticoid (Homo sapiens, UniProt P04150); test: Eurofins radioligand binding
# [13] = biological target: Histamine H2 (Homo sapiens, UniProt P25021); test: Eurofins radioligand binding
# [14] = biological target: Histamine H3 (Homo sapiens, UniProt Q9Y5N1); test: Eurofins radioligand binding
# [15] = test system: Imidazoline I2, Central; test: Eurofins radioligand binding; conditions: Rat
# [16] = biological target: Melatonin MT1 (Homo sapiens, UniProt P48039); test: Eurofins radioligand binding
# [17] = test system: Purinergic P2Y, Non-Selective; test: Eurofins radioligand binding; conditions: Rat
# [18] = test system: Thyroid Hormone; test: Eurofins radioligand binding; conditions: Rat
# [19] = biological target: Transporter, GABA (Rattus norvegicus, UniProt P23978); test: Eurofins radioligand binding
# [20] = PO, 10% Tween 80 in water, male Sprague-Dawley rats
# Chain of Histamine H3 (Q9Y5N1 whole entry): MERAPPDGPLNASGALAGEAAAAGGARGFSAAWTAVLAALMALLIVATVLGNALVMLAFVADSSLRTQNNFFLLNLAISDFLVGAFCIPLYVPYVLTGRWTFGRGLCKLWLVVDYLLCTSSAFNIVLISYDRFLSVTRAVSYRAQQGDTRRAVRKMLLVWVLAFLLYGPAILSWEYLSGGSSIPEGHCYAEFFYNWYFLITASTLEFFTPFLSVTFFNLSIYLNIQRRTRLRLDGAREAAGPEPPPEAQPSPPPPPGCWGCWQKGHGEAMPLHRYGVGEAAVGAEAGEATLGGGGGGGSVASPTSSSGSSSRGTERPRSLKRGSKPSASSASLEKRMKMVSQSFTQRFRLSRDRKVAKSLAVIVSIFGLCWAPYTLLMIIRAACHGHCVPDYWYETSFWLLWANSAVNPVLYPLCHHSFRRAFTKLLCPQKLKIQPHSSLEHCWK
# Chain of 3A4 (Homo sapiens, UniProt P08684) (P08684 whole entry): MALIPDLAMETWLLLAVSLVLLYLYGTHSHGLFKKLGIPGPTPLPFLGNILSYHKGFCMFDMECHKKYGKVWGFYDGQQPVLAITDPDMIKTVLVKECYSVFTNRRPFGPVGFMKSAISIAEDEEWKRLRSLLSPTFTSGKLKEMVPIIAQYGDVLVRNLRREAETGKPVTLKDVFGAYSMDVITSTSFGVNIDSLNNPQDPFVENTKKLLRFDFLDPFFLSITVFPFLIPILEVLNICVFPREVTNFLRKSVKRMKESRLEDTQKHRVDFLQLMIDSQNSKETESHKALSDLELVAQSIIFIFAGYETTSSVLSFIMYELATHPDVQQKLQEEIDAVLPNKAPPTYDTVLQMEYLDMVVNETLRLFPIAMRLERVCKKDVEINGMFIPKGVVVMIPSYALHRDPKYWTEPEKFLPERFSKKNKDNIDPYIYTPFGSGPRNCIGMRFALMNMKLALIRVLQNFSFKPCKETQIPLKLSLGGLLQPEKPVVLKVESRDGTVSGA
# Chain of Adrenergic α1D (P25100 whole entry): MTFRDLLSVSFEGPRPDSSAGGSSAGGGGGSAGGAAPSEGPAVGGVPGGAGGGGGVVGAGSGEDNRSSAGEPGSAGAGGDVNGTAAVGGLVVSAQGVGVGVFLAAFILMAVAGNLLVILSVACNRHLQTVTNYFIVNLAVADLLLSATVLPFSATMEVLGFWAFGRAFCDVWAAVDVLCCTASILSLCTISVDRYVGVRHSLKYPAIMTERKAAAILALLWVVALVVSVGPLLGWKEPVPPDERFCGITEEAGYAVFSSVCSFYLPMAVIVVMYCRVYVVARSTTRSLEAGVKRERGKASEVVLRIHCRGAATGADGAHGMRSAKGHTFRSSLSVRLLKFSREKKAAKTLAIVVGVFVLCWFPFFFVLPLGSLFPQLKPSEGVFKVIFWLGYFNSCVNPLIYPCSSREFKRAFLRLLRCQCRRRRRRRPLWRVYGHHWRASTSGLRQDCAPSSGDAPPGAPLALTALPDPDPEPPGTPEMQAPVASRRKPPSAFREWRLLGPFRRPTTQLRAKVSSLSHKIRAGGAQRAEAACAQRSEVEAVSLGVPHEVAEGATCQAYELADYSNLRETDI
# Chain of Glucocorticoid (P04150 whole entry): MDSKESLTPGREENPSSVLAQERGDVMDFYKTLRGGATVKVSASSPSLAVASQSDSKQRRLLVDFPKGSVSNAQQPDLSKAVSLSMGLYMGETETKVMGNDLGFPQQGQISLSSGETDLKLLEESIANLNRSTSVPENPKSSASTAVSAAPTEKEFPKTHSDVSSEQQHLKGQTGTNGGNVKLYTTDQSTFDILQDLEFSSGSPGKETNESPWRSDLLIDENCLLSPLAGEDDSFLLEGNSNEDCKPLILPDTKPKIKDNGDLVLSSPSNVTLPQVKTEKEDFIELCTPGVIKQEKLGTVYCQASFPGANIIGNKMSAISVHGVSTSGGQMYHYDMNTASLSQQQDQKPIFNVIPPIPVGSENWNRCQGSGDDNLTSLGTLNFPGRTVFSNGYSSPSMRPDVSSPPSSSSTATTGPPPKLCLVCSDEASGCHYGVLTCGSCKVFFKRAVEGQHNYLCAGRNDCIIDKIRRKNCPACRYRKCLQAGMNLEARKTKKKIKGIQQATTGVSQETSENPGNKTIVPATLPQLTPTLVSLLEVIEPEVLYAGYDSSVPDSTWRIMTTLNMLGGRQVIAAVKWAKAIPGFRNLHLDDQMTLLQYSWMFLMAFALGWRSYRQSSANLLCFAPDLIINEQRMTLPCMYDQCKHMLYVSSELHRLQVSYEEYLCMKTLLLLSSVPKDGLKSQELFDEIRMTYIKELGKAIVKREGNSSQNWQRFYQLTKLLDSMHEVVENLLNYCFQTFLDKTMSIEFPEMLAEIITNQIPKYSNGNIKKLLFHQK
# Chain of Bradykinin B1 (P46663 whole entry): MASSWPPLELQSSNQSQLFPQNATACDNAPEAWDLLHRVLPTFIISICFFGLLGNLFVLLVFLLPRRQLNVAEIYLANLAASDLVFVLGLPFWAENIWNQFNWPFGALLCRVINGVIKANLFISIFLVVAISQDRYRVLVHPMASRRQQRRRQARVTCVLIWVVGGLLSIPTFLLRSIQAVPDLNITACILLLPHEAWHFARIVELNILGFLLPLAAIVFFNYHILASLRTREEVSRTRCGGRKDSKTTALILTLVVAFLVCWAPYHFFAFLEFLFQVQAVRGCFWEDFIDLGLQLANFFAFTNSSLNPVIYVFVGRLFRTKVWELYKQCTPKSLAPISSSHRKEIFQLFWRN
# Chain of Histamine H2 (P25021 whole entry): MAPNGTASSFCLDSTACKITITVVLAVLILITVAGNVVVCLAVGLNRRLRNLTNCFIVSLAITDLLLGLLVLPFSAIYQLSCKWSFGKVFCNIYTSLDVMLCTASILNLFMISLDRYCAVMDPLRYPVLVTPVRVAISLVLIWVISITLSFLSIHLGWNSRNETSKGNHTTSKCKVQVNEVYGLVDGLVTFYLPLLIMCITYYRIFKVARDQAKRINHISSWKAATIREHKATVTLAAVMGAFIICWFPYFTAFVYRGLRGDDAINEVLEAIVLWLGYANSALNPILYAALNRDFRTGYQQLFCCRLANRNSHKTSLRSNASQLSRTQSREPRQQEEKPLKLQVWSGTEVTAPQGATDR
# Chain of Adrenergic β2 (P07550 whole entry): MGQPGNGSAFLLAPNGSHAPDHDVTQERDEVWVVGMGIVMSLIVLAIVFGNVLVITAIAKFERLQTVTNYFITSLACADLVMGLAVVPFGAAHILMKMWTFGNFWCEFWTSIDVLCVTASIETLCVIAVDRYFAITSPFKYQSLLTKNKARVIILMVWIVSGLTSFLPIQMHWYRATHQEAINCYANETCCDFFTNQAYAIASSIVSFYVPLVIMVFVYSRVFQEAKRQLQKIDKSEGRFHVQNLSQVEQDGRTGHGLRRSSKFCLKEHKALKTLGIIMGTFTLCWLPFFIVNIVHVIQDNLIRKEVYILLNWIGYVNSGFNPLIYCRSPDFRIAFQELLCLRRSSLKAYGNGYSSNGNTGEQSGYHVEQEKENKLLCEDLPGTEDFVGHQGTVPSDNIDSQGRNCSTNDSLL
# Chain of CYP 2B6 (P20813 whole entry): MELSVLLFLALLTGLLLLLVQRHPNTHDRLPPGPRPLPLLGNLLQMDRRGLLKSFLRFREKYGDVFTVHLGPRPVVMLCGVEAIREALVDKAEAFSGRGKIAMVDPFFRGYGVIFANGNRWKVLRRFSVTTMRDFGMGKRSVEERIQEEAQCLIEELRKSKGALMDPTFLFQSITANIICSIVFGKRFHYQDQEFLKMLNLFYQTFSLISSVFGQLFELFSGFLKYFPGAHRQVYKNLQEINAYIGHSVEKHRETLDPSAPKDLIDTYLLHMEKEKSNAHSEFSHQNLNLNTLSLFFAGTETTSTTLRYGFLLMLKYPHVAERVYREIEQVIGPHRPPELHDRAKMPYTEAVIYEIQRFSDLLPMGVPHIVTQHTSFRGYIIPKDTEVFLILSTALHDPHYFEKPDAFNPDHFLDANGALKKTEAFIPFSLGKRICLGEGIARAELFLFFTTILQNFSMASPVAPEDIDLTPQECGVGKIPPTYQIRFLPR
# Chain of Melatonin MT1 (P48039 whole entry): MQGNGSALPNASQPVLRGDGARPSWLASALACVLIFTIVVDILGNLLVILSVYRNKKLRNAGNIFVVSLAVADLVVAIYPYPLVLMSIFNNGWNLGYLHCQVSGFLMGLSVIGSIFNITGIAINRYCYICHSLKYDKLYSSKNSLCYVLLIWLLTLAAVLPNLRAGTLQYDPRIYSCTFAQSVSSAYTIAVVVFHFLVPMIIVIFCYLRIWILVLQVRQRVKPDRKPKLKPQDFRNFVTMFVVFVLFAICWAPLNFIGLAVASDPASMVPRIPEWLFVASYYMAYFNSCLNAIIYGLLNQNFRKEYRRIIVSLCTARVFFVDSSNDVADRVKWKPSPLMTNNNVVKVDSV
compound,measurement,setting,value
Cn1cc2c(-c3cc(F)c(CN4Cc5ncccc5C4=O)c(F)c3)ccc(C(C)(C)O)c2n1 [compound 7],"fraction unbound at 6 h, 5 µM",[1],0.037
same,IC50,[2],> 30 µM
same,F (%) po,"[3]; 10 mg/kg po, 10 mg/kg",>100%
same,clearance,"[3]; Sprague-Dawley, plasma, 1 mg/kg iv, read-out: CLp",5.8 mL/min/kg
same,half-life,"[3]; Sprague-Dawley, plasma, 1 mg/kg iv, read-out: Elimination t1/2 (converted)",222 min
same,Vd,"[3]; Sprague-Dawley, plasma, 1 mg/kg iv, read-out: Vss",1.3 L/kg
same,AUC,"[3]; Sprague-Dawley, plasma, 10 mg/kg po",110 µM·h
same,Cmax,"[3]; plasma, 10 mg/kg po",15.9 µM
same,Tmax,"[3]; plasma, 10 mg/kg po",1 h
same,free brain concentration at NOR MED,"[4]; 1 mg/kg PO, rat",71 nM
same,effect on recognition index / recognition memory in NOR,"[4]; 0.3 to 3.0 mg/kg PO, result in words",dose-dependently increased the recognition index; also recorded: dose-dependently enhanced the recognition memory
same,minimum effective dose (MED) in rat NOR,[4]; [20],1 mg/kg
same,"margin in terms of dose, NOR MED relative to the seizure assay and the Irwin battery","[4]; rat, in vivo",~50 fold
same,"margin in terms of total brain exposure, NOR MED relative to the seizure assay and the Irwin battery","[4]; rat, in vivo",11- to 16 fold
same,total brain concentration at CFC MED,"[5]; 0.3 mg/kg PO, rat",58 nM
same,effect on acquisition of CFC,"[5]; 0.03-3 mg/kg PO, result in words",robust dose-dependent enhancement in the acquisition of contextual fear conditioning; also recorded: dose-dependently enhanced the acquisition of CFC
same,minimum effective dose (MED) in rat CFC,[5]; [20],0.3 mg/kg
same,"contribution to metabolism, CYP450 phenotyping",[6],96.8%
same,2B6 induction,[7],11.5%
same,3A4 induction,"[8]; 10 μM, human hepatocytes from three donors",7.6%
same,3A4 induction,"[8]; 30 μM, mRNA as the reporter",30.5%
same,inhibition at 10 µM,[9],11%
same,inhibition at 10 µM,[10],-4%
same,inhibition at 10 µM,[11],0%
same,inhibition at 10 µM,[12],9%
same,inhibition at 10 µM,[13],2%
same,inhibition at 10 µM,[14],-11%
same,% Inhibition at 10 µM,[15],64%
same,inhibition at 10 µM,[16],-1%
same,% Inhibition at 10 µM,[17],21%
same,% Inhibition at 10 µM,[18],-1%
same,inhibition at 10 µM,[19],-12%
